Measurements from PubChem BioAssay (NCI).
Values joined by “and” are separate entries in the source; they are usually repeats but may differ in a detail not shown here. Equal entries are not always repeated.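 Results reflect a 48-hour exposure of cells in 96-well plates to compound at five concentrations. GI50 marks 50% less growth. TGI: concentration producing complete growth inhibition.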

Legend:
Test in all cases: NCI anticancer screen, dose series, 48 h
DMS 114 small cell lung = tested on: DMS 114 small cell lung
DMS 273 small cell lung = tested on: DMS 273 small cell lung
HOP-18 NSCLC = tested on: HOP-18 NSCLC
LXFL 529 NSCLC = tested on: LXFL 529 NSCLC
M19-MEL melanoma = tested on: M19-MEL melanoma
RXF-631 renal = tested on: RXF-631 renal
SNB-78 CNS = tested on: SNB-78 CNS
XF 498 CNS = tested on: XF 498 CNS
MDA-N = tested on: MDA-N

Row | SMILES | TGI (DMS 114 small cell lung) [µM] | TGI (DMS 273 small cell lung) [µM] | TGI (HOP-18 NSCLC) [µM] | TGI (LXFL 529 NSCLC) [µM] | TGI (M19-MEL melanoma) [µM] | TGI (RXF-631 renal) [µM] | TGI (SNB-78 CNS) [µM] | TGI (XF 498 CNS) [µM] | TGI (MDA-N) | GI50 (DMS 114 small cell lung) [µM] | GI50 (DMS 273 small cell lung) [µM] | GI50 (HOP-18 NSCLC) [µM] | GI50 (LXFL 529 NSCLC) [µM] | GI50 (M19-MEL melanoma) [µM] | GI50 (SNB-78 CNS) [µM] | GI50 (MDA-N) [µM]
1 | Cn1cnc([N+](=O)[O-])c1Sc1n[nH]c(-c2ccc(Cl)cc2)n1 | 49.7 | 37.3 | 8.3 | 36.7 | 47.7 | 59 | 70.7 | 27.6 |  |  |  |  |  |  |  | 
2 | O/N=C1/CCCC/C1=C\c1ccc(Cl)c(Cl)c1 | 59.8 | 63.1 | 59.8 | 54.4 | > 100 |  | 70.5 | 46.4 |  |  |  |  |  |  |  | 
3 | NC1=NN(c2ccccc2)C(=O)C1C(=O)C(=O)Nc1ccccc1 (stereo not drawn) | > 100 | > 100 | > 100 | > 100 | > 100 |  | > 100 | > 100 |  |  |  |  |  |  |  | 
4 | Nc1nc(-c2cccnc2)cc(-c2cc(-c3cccnc3)nc(N)n2)n1 |  |  |  |  |  |  |  |  | > 100 µM |  |  |  |  |  |  | 
5 | COc1ccc(/C=C/c2onc3c(=O)n(C)nc(-c4ccccc4)c23)cc1 | > 100 | > 100 | > 100 | > 100 | > 100 |  |  | > 100 |  |  |  |  |  |  |  | 
6 | CCOC(=O)C1CC(=O)C=C2CCCCC21 (stereo not drawn) | > 100 | > 100 |  | > 100 | > 100 | > 100 | > 100 | > 100 |  |  |  |  |  |  |  | 
7 | C[C@@H]1CC[C@@]2(C)OC(c3ccccc3)[C@H](CO)N2C1=O (stereo partly drawn) | > 100 | > 100 | > 100 |  | > 100 |  | > 100 | > 100 |  |  |  |  |  |  |  | 
8 | O=CN/C=C/c1ccccc1 |  | > 100 | > 100 | > 100 | > 100 | > 100 | > 100 |  |  |  |  |  |  |  |  | 
9 | CC(=O)OCC1OC(SC2=N/C(=C\c3ccc(Br)s3)C(=O)N2c2ccccc2)C(OC(C)=O)C(OC(C)=O)C1OC(C)=O (stereo not drawn) |  |  |  |  |  |  |  |  | > 100 µM |  |  |  |  |  |  | 
10 | C=C(C)CC(C(=O)O)c1ccc(C)cc1 (stereo not drawn) | > 100 | > 100 | > 100 |  | > 100 |  | > 100 | > 100 |  |  |  |  |  |  |  | 
11 | O=CCCn1[nH]c(=O)ccc1=O | > 100 | > 100 |  |  | > 100 |  | > 100 |  |  |  |  |  |  |  |  | 
12 | c1cc[c]([Ge]([O]c2cccc3cccnc23)([c]2ccccc2)[c]2ccccc2)cc1 | 5.06 | 12.4 | 8.37 | 5.27 | 12.1 |  | 17.7 |  |  | 2.32 | 3.46 | 1.26 | 2.31 | 3.46 | 4.34 | 
13 | CN1CCc2ccccc2C1Cc1ccccc1NC(=O)c1sc2ccccc2c1Cl (stereo not drawn) |  |  |  |  |  |  |  |  | > 100 µM |  |  |  |  |  |  | 
14 | COc1ccc2cc3c4cc(OC)c(OC)cc4ccn3c2c1 | > 100 | > 100 | > 100 | > 100 | > 100 |  | > 100 | > 100 |  |  |  |  |  |  |  | 
15 | CC(=O)O[C@@H]1c2c(c3c(=O)c4cccc(O)c4c(=O)c=3c2=[N+]=[N-])[C@H](OC(C)=O)[C@@H](OC(C)=O)[C@]1(C)O |  |  |  |  |  |  |  |  | 1.05 µM and 0.733 µM |  |  |  |  |  |  | 0.235
16 | N#CC(Sc1ccccc1)C(N)=O (stereo not drawn) | > 100 | > 100 | > 100 | > 100 | > 100 | > 100 | > 100 | > 100 |  |  |  |  |  |  |  | 
17 | CC(=O)N1c2ccccc2N(C(C)=O)C1c1ccc(C2N(C(C)=O)c3ccccc3N2C(C)=O)[nH]1 | > 100 | > 100 |  | > 100 | > 100 | > 100 |  | > 100 |  |  |  |  |  |  |  | 
18 | C[C@]12Cc3conc3C(O)=C1CC[C@@H]1C2CC[C@@]2(C)C1CC[C@@H]2O (stereo partly drawn) |  | 25.2 | > 100 | 33.5 | 74.5 |  | > 100 | 33.9 |  |  |  |  |  |  |  | 
19 | CCNCC(=O)Nc1ccc2c(c1)C(=O)c1ccc(NC(=O)CNCC)cc1C2=O |  |  |  |  |  |  |  |  | 18.9 µM |  |  |  |  |  |  | 
20 | C=CC12CCCCC1CC(C(=O)OC)=C(O)C2 (stereo not drawn) | > 100 | > 100 | > 100 | > 100 | > 100 | > 100 | > 100 | > 100 |  |  |  |  |  |  |  | 
21 | C=CCCn1nc(-c2ccccc2)oc1=O |  | > 100 | > 100 | > 100 | > 100 |  | > 100 | > 100 |  |  |  |  |  |  |  | 
22 | COc1ccc(C2(Cl)C(Cl)(C(F)(F)F)C2(Cl)C(F)(F)F)cc1 (stereo not drawn) | 25 | 27.4 | 28.6 | 27.1 | 26.5 | 30.3 | 29.7 | 25.5 |  |  |  |  |  |  |  | 
23 | CC1(C)C(=O)/C=C\C(=O)C(C)(C)C2=CC=C(O2)C(C)(C)C(=O)C(Br)C(Br)C(=O)C(C)(C)C2=CC=C1O2 (stereo not drawn) | > 31.6 | > 100 | > 100 | > 100 | > 100 | > 100 | > 100 | > 100 | > 100 µM |  |  |  |  |  |  | 
24 | Cc1nc2ccccc2c(=O)n1/N=C(\N=Nc1ccccc1)c1ccccc1Cl | > 90.1 | > 100 | 30.1 | > 100 | > 100 | > 100 | > 100 | 44.9 |  |  |  |  |  |  |  | 
25 | O=S(O)O.O=S(O)O.[Co].[NH2-].[NH2-].[NH2-].[NH2-] |  |  |  |  |  |  |  |  | > 100 µM |  |  |  |  |  |  | > 100
